Experimental data published in ChEMBL document CHEMBL1137985, “Synthesis and enzymatic evaluation of xanthine oxidase-activated prodrugs based on inhibitors of thymidine phosphorylase” (Bioorg Med Chem Lett, 2004).
Structures can show the parent of a compound that is named as a salt. Values belong to the compound of their own block, whether it stands above or below them.

Tests used:
Thymidine phosphorylase [1] = target: T1, Thymidine phosphorylase (Escherichia coli K-12, UniProt P07650); assay: Inhibition of Thymidine phosphorylase from Escherichia coli; no inhibition at 213 uM
Thymidine phosphorylase [2] = target: T1, Thymidine phosphorylase; assay: Inhibition of Thymidine phosphorylase from Escherichia coli; no inhibition at 47.2 uM
Thymidine phosphorylase [3] = target: T1, Thymidine phosphorylase; assay: Inhibition of Thymidine phosphorylase from Escherichia coli; no inhibition at 137 uM
Thymidine phosphorylase [4] = target: T1, Thymidine phosphorylase; assay: Inhibition of Thymidine phosphorylase from Escherichia coli; no inhibition at 207 uM
Thymidine phosphorylase [5] = target: T1, Thymidine phosphorylase; assay: Inhibition of Thymidine phosphorylase from Escherichia coli; no inhibition at 148 uM
Thymidine phosphorylase [6] = target: T1, Thymidine phosphorylase

T1 sequence (P07650 whole entry): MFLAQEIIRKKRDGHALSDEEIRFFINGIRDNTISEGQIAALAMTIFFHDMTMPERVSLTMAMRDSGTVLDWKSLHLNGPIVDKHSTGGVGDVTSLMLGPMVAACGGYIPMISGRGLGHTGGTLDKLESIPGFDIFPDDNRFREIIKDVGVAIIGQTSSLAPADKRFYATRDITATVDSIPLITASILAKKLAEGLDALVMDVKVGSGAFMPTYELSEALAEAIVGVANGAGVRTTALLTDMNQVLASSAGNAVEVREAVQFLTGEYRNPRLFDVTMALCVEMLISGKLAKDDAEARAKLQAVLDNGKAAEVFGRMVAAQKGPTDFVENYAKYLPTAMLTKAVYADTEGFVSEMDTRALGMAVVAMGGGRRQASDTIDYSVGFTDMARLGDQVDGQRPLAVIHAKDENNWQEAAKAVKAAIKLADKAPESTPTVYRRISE

IC50 (Thymidine phosphorylase [1]): No inhibition
Compound: Nc1ncncc1Br

Compound: Cl.N=C1CCCN1Cc1nc[nH]c(=O)c1Cl
IC50 (Thymidine phosphorylase [2]): No inhibition

IC50 (Thymidine phosphorylase [3]): No inhibition
Compound: Nc1[nH]c(=O)ncc1Br

IC50 (Thymidine phosphorylase [4]): No inhibition
Compound: O=c1[nH]cnc2[nH]ccc12

IC50 (Thymidine phosphorylase [5]): No inhibition
Compound: O=c1ncc2cc[nH]c2[nH]1

IC50 (Thymidine phosphorylase [5]): No inhibition
Compound: Nc1nc[nH]c(=O)c1Br
